These results are taken from patent US8609695B2, “Methods of treating and/or suppressing insulin resistance” (Endorecherche, Inc., priority 1999, dated 2013).

One experiment concerns OVX Sprague-Dawley Rat. The experiment can be described thus: 11-month combination treatment DHEA + EM-800, body weight (Example 2). The experiment is classed as in vivo. The note with it: OVX rats, 11 months. The text has this:
1.1 Test Compounds: • DHEA: Available from Steraloids Inc. Wilton, N.H. Lot: H137; • EM-800 is synthesized at the UCPO Department of Lab. of Mol. Endo., CHUL.
1.2 Vehicle • a) Gelatin: Lab-Grade, ACP Chemicals Inc., Montreal, Qc. Lot# F0195 • b) Ethanol: Commercial Alcohols Inc., Brampton, Ontario. Lot No. 11296 • c) Polyethylene Glycol-600 (PEG-600): Omega Chemical Company Inc., Lévis, Quebec. Lot#: 00-0117-EZ • d) Normal Saline: 0.9% Sodium Chloride irrigation USP. Abbott Laboratories Limited, St-Laurent, Qc. • e) Propylene Glycol (1, 2-Propanediol, PPG): Sigma Chemical Co., St-Louis, Mo. • g) Vehicle 1: 4% ETOH-4% PEG-600-1% gelatin-0.9% NaCl—H2O for Subcutaneous Injection. • h) Vehicle 2: 50% ETOH-50% PPG for Topical Application.
3.1 Perapartion of Vehicle and Test Articles • a) Preparation of EM-800: • EM-800 or both of them will be dissolved in ETOH:PEG-600 (1:1) with agitation on Fisher Scientific Stirring Hot Plate, then, 1% GNS will be added to the required volume. • b) Preparation of DHEA: • DHEA is dissolved in 50% ETOH, 50% PPG by agitation.
3.2 Animal Preparation and Treatments • Animals will be treated once daily as indicated on Item 6.1. DHEA, prepared in 50% ETOH, 50% PPG, will be percutaneously applied (P.C.) to corresponding animals once daily (I.D.) in a volume of 0.5 ml. […]

A further experiment deals with aged Sprague-Dawley rats. The note with it: reduced from 600, without affecting food intake; cited from earlier work.
The subject of experiment [1] is lean and obese Zucker male rats. The experiment can be described thus: Energy balance and lipid-lipoprotein metabolism in Zucker male rats (Example 8A). Format: in vivo, Rattus norvegicus. The conditions noted are these: for Lipoprotein lipase activity White retroperitoneal / Lipoprotein lipase activity soleus / Plasma glucose / Plasma insulin / Plasma total cholesterol / Plasma triglycerides / Weight gain: 2.5 mg/kg orally once daily, 14 days; for decrease of body weight gain / reduction of plasma insulin: 2.5 mg/kg/day. The procedure: The objective of this study was to determine the effect of EM-652.HCl on energy balance and lipid-lipoprotein metabolism in lean and obese Zucker male rats. For this purpose, EM-652.HCl (2.5 mg/kg) was administered orally (gavage) once daily for 14 days to intact lean and obese Zucker male rats.
d) Diet: During the acclimation period, rats received a commercial rodent diet (Purina, #5075) and tap water ad libitum. During study period, rats received the following diet (diet #3) composed of (g/100 g): Starch, 31.2; Dextrose, 31.2; Casein, 20.0; Corn oil, 6.4; dl-Methionine, 0.3; Vitamin mix, 1.0; AIN-76 mineral mix, 4.9; Fiber, 5.0.
Test groups: Sixteen lean and sixteen obese intact male rats were assigned to 4 groups of 8 rats for conduct of the study outlined below
Administration of the tested compound or vehicle started on Day 1 of the study. The tested compound EM-652.HCl was given as suspension in 0.4% methylcellulose by oral gavage (0.5 ml/gavage/rat) once daily for 14 days. Rats from control groups received the vehicle alone (0.5 ml/gavage/rat) for the same time period.
During the acclimation period, animals were weighed one day prior to the start of dosing for randomization. Then, rats were weighed on the first dosing day and every 2 days thereafter as well as on the day of necropsy. Body weights were recorded with a precision of 1 g.
Following an approximative 6-hour fasting period, animals were necropsied (approximately 30 hours after the last dosing). They were anesthesized with ketamine-xylazine and blood drawn by cardiac punction.
Blood lipids (Total cholesterol (CHOL) and Triglycerides (TG)) and glucose were measured on frozen plasma samples using the Boehringer Mannheim Diagnostic Hitachi 911 Analyzer (Boehringer Mannheim Diagnostic Laboratory Systems). Circulating hormones and substrates (Leptin, Insulin) were measured on frozen plasma samples with the following kits: • Leptin: Linco RLA kit • Insulin: Linco RIA kit Organs and Tissues Collected:
The retroperitoneal adipose tissue and the soleus (muscle) were collected and frozen in liquid nitrogen for further determination of lipoprotein lipase (LPL) activity. The prostate, testes (right and left together) and right seminal vesicle (empty of fluid) were weighed. The right seminal vesicles were discarded.

With `C[C@]12CC[C@H](O)CC1=CC[C@@H]1[C@@H]2CC[C@]2(C)C(=O)CC[C@@H]12` [DHEA, dehydroepiandrosterone], in the experiment with OVX Sprague-Dawley Rat (DHEA 12.5 mg daily, EM-800 daily), the “inhibition of the OVX stimulation of body weight” value is recorded as 87%. The “Total weight” value with OVX Sprague-Dawley Rat (DHEA 12.5 mg/day/rat percutaneous, EM-800 100 μg/day/rat s.c.) was 490.8 ± 24.1 g. Also, the body weight with aged Sprague-Dawley rats is reported as 550 g.

As for `CC1=C(c2ccc(O)cc2)[C@H](c2ccc(OCCN3CCCCC3)cc2)Oc2cc(O)ccc21.Cl` [EM-652.HCl, (S)-(+)-7-hydroxy-3-(4′-hydroxyphenyl)-4-methyl-2-(4″-(2′″-piperidino-ethoxy)phenyl)-2H-1-benxopyran hydrochloride], in experiment [1] (lean Zucker male rats), the “Lipoprotein lipase activity White retroperitoneal” value turned out to be 1701 ± 348 μU/g protein, the “Lipoprotein lipase activity soleus” value worked out at 69.5 ± 8.4 μU/g protein, the Plasma glucose turned out to be 9.35 ± 0.51 mmol/L and the Plasma insulin is listed as 0.062 ± 0.005 nmol/L. In experiment [1] (lean Zucker male rats), the Plasma total cholesterol came to 1.18 ± 0.09 mmol/L, the Plasma triglycerides is recorded as 1.52 ± 0.13 mmol/L and the Weight gain is on record as 44.9 ± 3.5 g. For the same compound, in experiment [1] (lean male Zucker rats), the “decrease of body weight gain” value is 38% and the “reduction of plasma insulin” value is 35%. Also, in experiment [1] (obese Zucker male rats), the “Lipoprotein lipase activity White retroperitoneal” value was found to be 7046 ± 1185 μU/g protein, the “Lipoprotein lipase activity soleus” value amounted to 58.1 ± 4.6 μU/g protein, the Plasma glucose is given as 11.84 ± 0.62 mmol/L and the Plasma insulin was found to be 0.475 ± 0.087 nmol/L. In experiment [1] (obese Zucker male rats), the Plasma total cholesterol amounted to 2.28 ± 0.25 mmol/L, the Plasma triglycerides is recorded as 7.16 ± 1.06 mmol/L and the Weight gain is reported as 71.6 ± 3.3 g. Besides, in experiment [1] (obese male Zucker rats), the “decrease of body weight gain” value is 35% and the “reduction of plasma insulin” value is reported as 57%.
